# Assay results as given in patent US12544371B2, “Methods and compositions for treating acute lung injury and acute respiratory distress syndrome” (CalciMedica, Inc., priority 2020, dated 2026).
# Where two headings read alike, the source gives them in different places.
# Experiments:
# [1] = Safety pharmacology studies in rats; assay type: in vivo
# Source text: Compound 1 is a non-limiting example of a composition described herein that inhibits calcium release-activated calcium (CRAC) channels).
# [2] = test system: IL-6 released from human PBMCs; experiment: Cytokine released from human PBMCs: IL-6; assay type: cell-based
# Source text: (§1) CRAC channels may play a proximal role in a calcium-calcineurin pathway leading to cytokine release in immune cells.
# [3] = Phase 2 trial in severe COVID-19 pneumonia, interim results; assay type: in vivo, human; settings: for Difference (Compound 1 − Standard Care), estimated mean of ordinal scale: MMRM; for Difference (Compound 1 − Standard Care), ordinal scale, sensitivity analysis: three patients with PaO2/FiO2<100 removed
# Experimental: A phase 2 clinical trial is performed to evaluate Compound 1 in patients with severe COVID-19 pneumonia. The study will investigate the use of Compound 1 in patients with severe COVID-19 pneumonia who are at risk for progression to acute respiratory distress syndrome (ARDS).
# Compound 1 Dose and Route of Administration: 2.0 mg/kg of an injectable emulsion of Compound 1 will be administered at 0 hour and 1.6 mg/kg will be administered at both 24 hours and 48 hours from the Start of the First Infusion of Study Drug (SFISD).
# Study Design: In this randomized controlled open-label stage study, 60 patients who meet all of the inclusion criteria and none of the exclusion criteria will be randomized 2:1 to receive Compound 1 or continue with the local standard of care. The dose of Compound 1 will be 2.0 mg/kg of Compound 1 administered at 0 hour, and 1.6 mg/kg at 24 hours and 1.6 mg/kg at 48 hours. The SFISD should occur within 8 hours of the patient or LAR providing informed consent. The dosing will be based on actual body weight obtained at the time of hospitalization or screening for the study. A study physician or appropriately trained delegate will perform assessments at screening, immediately prior to the SFISD, and immediately prior to each subsequent infusion. At 72 hours after the SFISD, the patient will be assessed every 24 hours (±4 hours) until Day 30 after the SFISD, or until discharge if earlier. Patients who are discharged before Day 25 after the SFISD will be contacted at Day 30 (±5 days) and Day 60 (+5 days) for a safety and mortality assessment. Patients randomized to receive local standard of care will not have blood samples drawn for PK assessments.
# Interim results for the phase 2 trial have been obtained, as follows. 18 patients with severe COVID-19 pneumonia have been enrolled, in which 12 treated have been treated with an injectable emulsion of Compound 1, and 6 have received the standard of care. 3 sites are currently enrolling patients. 11 of the enrolled patients are at site 1 (8 treated and 3 SOC), 3 are at site 2 (1 treated and 2 SOC), and 4 are at site 3 (3 treated and 1 SOC). The subjects with severe COVID-19 were those that necessitated low-flow oxygen treatment.
# Compound 1 in Severe COVID-19 Pneumonia: Time to Hospital Discharge. One subject in standard care group was discharged with low flow treatment and is considered as censored at discharge instead of out of hospital. 3 patients who died were censored at Day 30. […] Similar improvements would be expected upon treatment with other intracellular Calcium signaling inhibitors or CRAC inhibitors.
# Compound 1 in Severe COVID-19 Pneumonia: Ordinal Scale Analysis. The data in are based on an MMRM model and missing at random assumption. The ordinal scale was as follows: 1. Death 2. Hospitalized, on invasive mechanical ventilation or ECMO 3. Hospitalized, on non-invasive ventilation or high flow oxygen devices 4. Hospitalized, requiring low flow supplemental oxygen 5. Hospitalized, not requiring supplemental oxygen—requiring ongoing medical care (coronavirus (e.g. COVID-19) related or otherwise) 6. Hospitalized, not requiring supplemental oxygen—no longer requires ongoing medical care (other than per protocol study drug administration) 7. Not hospitalized. […] Similar improvements would be expected upon treatment with other intracellular Calcium signaling inhibitors or CRAC inhibitors.
# [4] = test system: TNFα released from human PBMCs; experiment: Cytokine released from human PBMCs: TNFα; assay type: cell-based
# Source text: as §1
# [5] = test system: IL-10 released from human PBMCs; experiment: Cytokine released from human PBMCs: IL-10; assay type: cell-based; settings: PBMC, mean of replicates
# Source text: as §1
# [6] = test system: IFNγ released from human PBMCs; experiment: Cytokine released from human PBMCs: IFNγ; assay type: cell-based
# Source text: as §1
# [7] = Repeat-dose toxicity study in monkeys; settings: in vivo, monkey
# Experimental: Hemolysis testing concluded that Compound 1 was compatible with human plasma and non-hemolytic in human blood.
# Plasma concentrations of compound rise steadily during the 4-hour infusion, with Tmax achieved at the end of infusion (4 hours). After the end of infusion, there is a rapid and prominent distribution phase followed by a prolonged period of residual drug levels. The terminal elimination phase has not yet been fully characterized as it appears to be much longer than was anticipated based on pre-clinical PK data in mouse, rat, dog and monkey. Plasma concentrations during the terminal phase are approximately 5% of Cmax values and, as indicated above, to date there have been no clinically significant AEs reported during this phase. Plasma exposures, defined by AUC0-24 h, appear to be dose-proportional and reached a maximum of 6710 ng*h/mL in Group 5, which is 4.3-fold below the mean AUC24 h in monkey at the NOAEL (29,000 ng*hr/mL).
structure (smiles),measurement,setting,value
"Cc1cccc(F)c1C(=O)Nc1cnc(-c2cc3c(cc2Cl)OC(F)(F)O3)cn1 [Compound 1, N-(5-(6-Chloro-2,2-difluorobenzo[d][1,3]dioxol-5-yl)pyrazin-2-yl)-2-fluoro-6-methylbenzamide]",adverse effects on central nervous or respiratory systems,[1],no adverse effects
same,IC50,"[2]; Homo sapiens, PBMC, mean of replicates, read-out: Mean IC50, IL-6 released from human PBMCs",135 nM
same,IC50,"[2]; Homo sapiens, PBMC, single replicates, read-out: Replicate IC50 values, IL-6 released from human PBMCs",145 nM
same,IC50,"[2]; single replicates, read-out: Replicate IC50 values, IL-6 released from human PBMCs",126 nM
same,"Difference (Compound 1 − Standard Care), estimated mean of ordinal scale",[3]; Study Day 0,0.00
same,"Difference (Compound 1 − Standard Care), ordinal scale, sensitivity analysis",[3]; Study Day 0,0.00
same,"Difference (Compound 1 − Standard Care), estimated mean of ordinal scale",[3]; Study Day 1,0.75
same,"Difference (Compound 1 − Standard Care), ordinal scale, sensitivity analysis",[3]; Study Day 1,0.70
same,"Difference (Compound 1 − Standard Care), estimated mean of ordinal scale",[3]; Study Day 2,0.83
same,"Difference (Compound 1 − Standard Care), ordinal scale, sensitivity analysis",[3]; Study Day 2,0.80
same,"Difference (Compound 1 − Standard Care), estimated mean of ordinal scale",[3]; Study Day 3,1.17
same,"Difference (Compound 1 − Standard Care), ordinal scale, sensitivity analysis",[3]; Study Day 3,1.10
same,"Difference (Compound 1 − Standard Care), estimated mean of ordinal scale",[3]; Study Day 4,1.73
same,"Difference (Compound 1 − Standard Care), ordinal scale, sensitivity analysis",[3]; Study Day 4,1.76
same,"Difference (Compound 1 − Standard Care), estimated mean of ordinal scale",[3]; Study Day 5,1.87
same,"Difference (Compound 1 − Standard Care), ordinal scale, sensitivity analysis",[3]; Study Day 5,2.02
same,"Difference (Compound 1 − Standard Care), estimated mean of ordinal scale",[3]; Study Day 6,2.04
same,"Difference (Compound 1 − Standard Care), ordinal scale, sensitivity analysis",[3]; Study Day 6,2.23
same,"Difference (Compound 1 − Standard Care), estimated mean of ordinal scale",[3]; Study Day 7,1.30
same,"Difference (Compound 1 − Standard Care), ordinal scale, sensitivity analysis",[3]; Study Day 7,1.79
same,"Difference (Compound 1 − Standard Care), estimated mean of ordinal scale",[3]; Study Day 8,1.39
same,"Difference (Compound 1 − Standard Care), ordinal scale, sensitivity analysis",[3]; Study Day 8,1.89
same,"Difference (Compound 1 − Standard Care), estimated mean of ordinal scale",[3]; Study Day 9,1.48
same,"Difference (Compound 1 − Standard Care), ordinal scale, sensitivity analysis",[3]; Study Day 9,1.90
same,"Difference (Compound 1 − Standard Care), estimated mean of ordinal scale",[3]; Study Day 10,1.21
same,"Difference (Compound 1 − Standard Care), ordinal scale, sensitivity analysis",[3]; Study Day 10,1.81
same,"Difference (Compound 1 − Standard Care), estimated mean of ordinal scale",[3]; Study Day 12,1.31
same,"Difference (Compound 1 − Standard Care), ordinal scale, sensitivity analysis",[3]; Study Day 12,1.81
same,"Difference (Compound 1 − Standard Care), estimated mean of ordinal scale",[3]; Study Day 14,1.05
same,"Difference (Compound 1 − Standard Care), ordinal scale, sensitivity analysis",[3]; Study Day 14,2.07
same,"Difference (Compound 1 − Standard Care), ordinal scale, sensitivity analysis",[3]; Study Day 16,1.82
same,"Difference (Compound 1 − Standard Care), ordinal scale, sensitivity analysis",[3]; Study Day 18,1.83
same,ordinal scale (7-point),[3]; interim,improvement
same,Subjects out of hospital,"[3]; interim, 9/12 subjects",9/12 (75%)
same,PaO2/FiO2,"[3]; interim, following administration",increased
same,probability of being at a hospital over time,"[3]; interim, versus standard care",lower probability of being at a hospital over time
same,"KM estimate of number of days in hospital, median","[3]; interim, 95% CI (4 days, na)","5.5 days (4 days, na)"
same,IC50,"[4]; Homo sapiens, PBMC, mean of replicates, read-out: Mean IC50, TNFα released from human PBMCs",225 nM
same,IC50,"[4]; Homo sapiens, PBMC, single replicates, read-out: Replicate IC50 values, TNFα released from human PBMCs",278 nM
same,IC50,"[4]; single replicates, read-out: Replicate IC50 values, TNFα released from human PBMCs",173 nM
same,IC50,[5],303 nM
same,IC50,"[6]; Homo sapiens, PBMC, mean of replicates, read-out: Mean IC50, IFNγ released from human PBMCs",138 nM
same,IC50,"[6]; Homo sapiens, PBMC, single replicates, read-out: Replicate IC50 values, IFNγ released from human PBMCs",175 nM
same,IC50,"[6]; single replicates, read-out: Replicate IC50 values, IFNγ released from human PBMCs",102 nM
same,AUC(0-t),"[7]; NOAEL 3 mg/kg/day, read-out: mean AUC24 h in monkey at the NOAEL",29000 ng·h/mL
same,NOAEL,"[7]; repeat-dose, monkeys, read-out: no observable adverse effect level (NOAEL)",3 mg/kg/day
